Patent US11046991B2, “Rapid preconcentration of viable bacteria using magnetic ionic liquid for PCR amplification and culture-based diagnostics” (priority 2017, dated 2021)

Columns and labels:
E. coli [1] = assay: MIL-based extraction of viable E. coli, selective culture and colony enumeration; details: for visible colonies after back-extraction with LB media and culture on selective agar: aqueous solutions of 1.68×10^5 CFUs mL^−1
Protocol: For each cell extraction experiment, 2 mL of sterile LB media with 100 μg mL^−1 carbenicillin was inoculated with 0.5 μL of E. coli glycerol stock and incubated overnight at 37° C. and 225 rpm. The overnight culture was centrifuged at 2820 g for 8 min and the supernatant discarded. The cells were then vortexed for 15 s in 2 mL of deionized water and centrifuged once again at 2820 g for 8 min. Following a total of three washes, the cells were re-suspended in 1 mL of deionized water. The concentration of cells within the suspension was initially determined by measuring the optical density of the sample at 600 nm (OD600), where an OD600 equal to 1.000 represents 8×10^8 E. coli cells mL^−1. The bacterial suspension was diluted to an OD600 value of 0.021 (1.68×10^7 cells mL^−1), after which 10-fold serial dilutions were performed to yield the desired sample concentration. Since the sample concentrations were below the detection limit of the spectrophotometer, the final concentration of each sample (in CFUs mL^−1) was obtained using a plate counting method. Briefly, 15 μL of diluted cell suspension were mixed with 985 μL of LB media and vortexed for 3 min. A […] aliquot of the suspension was spread onto a selective LB agar plate with 100 μg mL^−1 carbenicillin and incubated overnight at 37° C. to obtain visible colonies.
(§1) A general schematic for the MIL-based cell extraction procedure is depicted in FIG. 10. In a 4 mL screw cap glass vial, a controlled volume (e.g., 10 μL) of MIL was added to 2 mL of diluted cell suspension and dispersed into microdroplets by vortex agitation for 15-120 s. Following the dispersive extraction, a 0.9 T magnetic field was applied to collect the cell-enriched MIL extraction phase. After the aqueous phase was decanted, the MIL was subjected to a static wash with 2 mL of deionized water to ensure that residual cell suspension was removed. The extracted E. coli was recovered from the MIL solvent by vortexing the MIL in 1 mL of LB media from 30 to 300 s. Following back-extraction, aliquots of the cell-enriched LB media were cultured on selective agar as well as analyzed by PCR.
To detect viable bacteria recovered from the MIL extraction solvent, a culture-based method selective for E. coli transformants was employed. Following MIL-based extraction, a 100 μL aliquot of the LB back-extraction solution was plated on LB agar containing 100 μg mL^−1 carbenicillin and incubated overnight at 37° C. Visible colonies were counted, tabulated, and compared to the colonies obtained for the sample prior to extraction. The enrichment factor (EF) from the MIL-based extraction was calculated by Equation 1, where CMIL is the concentration of CFUs within the MIL extraction phase and CS represents the concentration of CFUs in the bacterial suspension prior to extraction. EF=CMIL/CS Equation 1
To determine if MILs can extract viable E. coli cells, aqueous solutions of 1.68×10^5 CFUs mL^−1 were extracted with each of the seven MILs using an approach that is similar to one depicted in FIG. 10. […] [Co(hfacac)3^−] MILs with the greatest number of colonies obtained from the Ni(II)-based MIL extractions.

[2] = Magnetic susceptibility, SQUID magnetometer; type: physicochemical
Protocol: The μeff values for each exemplary MIL were determined using a Quantum Design MPMS SQUID magnetometer following procedures similar to those previously reported. (Y. Mudryk, P. Manfrinetti, V. Smetana, J. Liu, M. L. Fornasini, A. Provino, V. K. Pecharsky, G. J. Miller and K. A. Gschneidner, J. Alloys Compd, 2013, 557, 252-260).

E. coli K12 cells = type: cell-based
Protocol: Since culture-based methods are contingent upon the isolation of viable bacteria, the detection of E. coli following MIL-based cell extraction is influenced by the cytotoxicity of MILs. To study the effect of MILs on the growth of E. coli, a 1 mL aliquot of LB media was inoculated with 8.0×10^2±0.5×10^2 CFUs mL^−1 and spiked with approximately 10 μL of a MIL. The mixture was agitated by vortex to simulate the recovery procedure after which a 100 μL aliquot of the suspension was plated on selective agar.

E. coli [3] = assay: PCR amplification of LB back-extraction solution after MIL-based extraction
Protocol: as §1
Following the recovery of E. coli cells from the MIL extraction phase, an aliquot of the LB back-extraction solution was analyzed by PCR. […] The thermal protocol used for amplification of the MTAP gene was as follows: 5 min initial denaturation at 95° C. followed by 30 cycles of 30 s denaturation at 95° C., 45 s annealing at 54° C., and elongation for 45 s at 72° C.
After thermal cycling, the PCR products were mixed with 10 μL of bromophenol blue tracking dye solution (30% glycerol v/v) and loaded on a 1% agarose gel stained with SYBR Safe DNA gel stain. The PCR amplicon was subjected to electrophoresis at approximately 4 V cm^−1 and subsequently visualized using a transilluminator.
To improve detection limits, cells were recovered from the MIL phase using […] and a 1 μL aliquot of LB media was analyzed by PCR amplification. […] MILs as extraction media.
MIL. […] 1999; 37:2479-82). It should be noted that PCR assays are unable to distinguish between live and dead cells and, therefore, are complementary to microbiological culture for the determination of viable cells in a sample.

[4] = 1 second vial inversion (viscosity comparison); type: physicochemical; details: 1 second inversion of each MIL
From the text: FIG. 2 compares the viscosities of [P66614^+]2[MnCl4^2−], [P66614^+][Ni(hfacac)3^−], and [P66614^+][Nd(hfacac)4^−] by performing a 1 second inversion of each MIL.

[5] = Viscosity, cone and plate viscometer; type: physicochemical; details: 23.7° C.
Protocol: Proton NMR spectra (^1H) were recorded using a Bruker 500 MHz nuclear magnetic resonance spectrometer. Solvent peaks were used as reference values for the reporting of chemical shifts. Elemental analyses were obtained using a Perkin Elmer 2100 Series II CHN/S Analyzer (Waltham, Mass., USA). Mass spectra were obtained using an Agilent 6230 TOF LC/MS (Santa Clara, Calif., USA). Viscosity measurements were obtained using a Wells/Brookfield DV1 cone and plate viscometer using a CPA-51Z cone spindle. Each MIL was dried in a vacuum oven for 48 hours at 50° C. ensuring any water or residual solvents were completely removed from the MILs. Sample volumes of 0.5 mL were used for all MILs at a temperature (23.7° C.).

E. coli [6] = assay: MIL-based extraction of viable E. coli, selective culture and colony enumeration; details: extraction time 30 s to 300 s
E. coli [7] = assay: Direct PCR amplification of cell-enriched MIL phase; details: 0.5 μL cell-enriched MIL phase directly in PCR mixture
Protocol: Nucleic acid-based methods (e.g., PCR) have become increasingly popular for the detection of pathogens in food, environmental, and clinical samples to increase sample throughput and achieve lower detection limits. […] [Co(hfacac)3^−] MIL under optimized conditions. After extraction, 0.5 μL of the cell-enriched MIL phase was directly transferred into the PCR reagent mixture and heated at 95° C. for 5 min to induce cell lysis and the release of nucleic acids into solution. […] While the direct PCR detection modality provided a rapid assay for the detection of E. coli, the method was only suitable for the detection of relatively large quantities of cells (approximately 10^7 CFUs mL^−1) in aqueous samples likely due to inhibition caused by the MIL.

[8] = Solubility of MILs in organic solvents (solvent miscibility); type: physicochemical; details: S with footnotes b-e: organic solvents and water, MIL to solvent ratio
From the text: Owing to their unique solvation capabilities and high thermal stability, ILs have been successfully employed in organic synthesis either as reaction media or catalysts. An evaluation of the hydrophobic MIL solubility in a wide range of organic solvents may provide a fundamental understanding into their solvent properties. This could be instrumental for designing MIL-based reaction media, where the MIL can be selectively separated from the reaction products using an external magnetic field. […] The transition-metal based […] fully miscible in all of the organic solvents except DMSO. […] However, as the polarity value of the solvent drops below 0.117, the transition-metal based MILs show decreased solubilities at a 10% (v/v) MIL to solvent ratio. […] The solubility of these MILs in many different organic solvents adds to their versatility and use in numerous applications.

SMILES	change in EF with SOC media as back-extraction solution (E. coli [1]; 120 s back-extraction)	enrichment factor (EF) (E. coli [1]; 120 s back-extraction in LB media, 30 s extraction)	enrichment factor (EF) (E. coli [1]; MIL volume of 5 μL, cell suspension at 1.68×10^4 CFUs mL^−1)	visible colonies after back-extraction with LB media and culture on selective agar (E. coli [1])	colonies with deionized water or 10 mM Tris-HCl (pH 8) as back-extraction solution (E. coli [1]; culture on selective agar)	lowest E. coli concentration detected in aqueous solution (E. coli [1]; optimized conditions, viable cells, culture on selective agar)	μeff ([2]; at lower temperatures) [μB]	influence on the growth of E. coli (E. coli K12 cells; LB media with 8.0×10^2 CFUs mL^−1, approximately 10 μL of MIL, compared to unexposed standard)	amplicon after extraction of cell filtrate (cell-free DNA) (E. coli [3])	E. coli concentration at which bacterial pDNA was detected by PCR (E. coli [3]; cell recovery in LB media prior to PCR, 2 mL sample)	movement down the vial [4]	viscosity [5] [cP]	enrichment factor (EF) (E. coli [6])	quantity of cells detectable by direct PCR (E. coli [7])	Viable Bacteria (E. coli [1]; extraction of E. coli from aqueous samples, 1.68×10^5 CFUs mL^−1)	μeff, effective magnetic moment ([2]; from magnetic susceptibility data, SQUID) [μB]	Cytotoxicity to E. coli (E. coli K12 cells)	Solubility [8]
CCCCCCCCCCCCCC[P+](CCCCCC)(CCCCCC)CCCCCC.O=C(C=C([O-])C(F)(F)F)C(F)(F)F.O=C(C=C([O-])C(F)(F)F)C(F)(F)F.O=C(C=C([O-])C(F)(F)F)C(F)(F)F.[Ni+2] [MIL 3, [P66614^+] tris(hexafluoroacetylaceto)nickelate(II)]	no change in the EF was observed	15.4±0.8	44.6±5.2	visible colonies were observed	no detectable colonies	1.68×10^4 CFUs mL^−1	2.8	little to no influence on the growth of E. coli	no amplicon was detected	1.68×10^4 CFUs mL^−1	flow easily toward the bottom of the vial	927	approximately 15					
CCCCCCCCCCCCCC[P+](CCCCCC)(CCCCCC)CCCCCC.O=C(C=C([O-])C(F)(F)F)C(F)(F)F.O=C(C=C([O-])C(F)(F)F)C(F)(F)F.O=C(C=C([O-])C(F)(F)F)C(F)(F)F.[Co+2] [[P66614^+] [Co(hfacac)3^−]]				visible colonies were observed										approximately 10^7 CFUs mL^−1				
CCCCCCCCCCCCCC[P+](CCCCCC)(CCCCCC)CCCCCC [compound 1]												575.8			No	4.3	Yes	S^b,c,e
